Data reported in ChEMBL document CHEMBL1129595, “Potent 6-desfluoro-8-methylquinolones as new lead compounds in antibacterial chemotherapy” (J Med Chem, 1996).
Values after ≈ are worked out from the molar mass of the structure shown.

What was measured:
Assay type in all cases: functional
Enterococcus faecalis [1] = assay: In vitro antibacterial activity against Enterococcus faecalis LEP Br
Enterococcus faecalis [2] = assay: In vitro antibacterial activity against Enterococcus faecalis UCMC 39690
Enterobacter cloacae = assay: In vitro antibacterial activity against Enterobacter cloacae OMNFI 174
Escherichia coli [3] = assay: In vitro antibacterial activity against Escherichia coli 120
Escherichia coli [4] = assay: In vitro antibacterial activity against Escherichia coli ATCC 25922
Haemophilus influenzae = assay: In vitro antibacterial activity against Haemophilus influenzae
Klebsiella pneumoniae = assay: In vitro antibacterial activity against Klebsiella pneumoniae ATCC 10031
Proteus mirabilis = assay: In vitro antibacterial activity against Proteus mirabilis OBT 505
Pseudomonas aeruginosa [5] = assay: In vitro antibacterial activity against Pseudomonas aeruginosa OBT 307
Proteus vulgaris = assay: In vitro antibacterial activity against Proteus vulgaris CNUR 6
Staphylococcus aureus [6] = assay: In vitro antibacterial activity against Staphylococcus aureus ATCC 29213
Staphylococcus aureus [7] = assay: In vitro antibacterial activity against Staphylococcus aureus M-R POMM 6214
Staphylococcus aureus [8] = assay: In vitro antibacterial activity against Staphylococcus aureus MPR 5
Staphylococcus aureus [9] = assay: In vitro antibacterial activity against Staphylococcus aureus CPX-R OBT 687
Streptococcus pneumoniae = assay: In vitro antibacterial activity against Streptococcus pneumoniae I 0.43
Streptococcus pyogenes = assay: In vitro antibacterial activity against Streptococcus pyogenes OMNFI BI
Escherichia coli [10] = assay: In vitro antibacterial activity against Escherichia coliCPX-R OBT 431
Pseudomonas aeruginosa [11] = assay: In vitro antibacterial activity against Pseudomonas aeruginosa […] 9027

SMILES	MIC (Enterococcus faecalis [1]) [µg/mL]	MIC (Enterococcus faecalis [2]) [µg/mL]	MIC (Enterobacter cloacae) [µg/mL]	MIC (Escherichia coli [3]) [µg/mL]	MIC (Escherichia coli [4]) [µg/mL]	MIC (Haemophilus influenzae) [µg/mL]	MIC (Klebsiella pneumoniae) [µg/mL]	MIC (Proteus mirabilis) [µg/mL]	MIC (Pseudomonas aeruginosa [5]) [µg/mL]	MIC (Proteus vulgaris) [µg/mL]	MIC (Staphylococcus aureus [6]) [µg/mL]	MIC (Staphylococcus aureus [7]) [µg/mL]	MIC (Staphylococcus aureus [8]) [µg/mL]	MIC (Staphylococcus aureus [9]) [µg/mL]	MIC (Streptococcus pneumoniae) [µg/mL]	MIC (Streptococcus pyogenes) [µg/mL]	MIC (Escherichia coli [10]) [µg/mL]	MIC (Pseudomonas aeruginosa [11]) [µg/mL]
Cc1c(N2CCC(C)CC2)ccc2c(=O)c(C(=O)O)cn(C3CC3)c12	0.5 (≈ 1.47 µM)	0.03 (≈ 0.0881 µM)	0.25 (≈ 0.734 µM)	0.06 (≈ 0.176 µM)	0.03 (≈ 0.0881 µM)	< 0.016	< 0.016	2 (≈ 5.88 µM)	8 (≈ 23.5 µM)	4 (≈ 11.8 µM)	< 0.016	< 0.016	< 0.016	1 (≈ 2.94 µM)	0.25 (≈ 0.734 µM)	0.125 (≈ 0.367 µM)	> 16	2 (≈ 5.88 µM)
Cc1c(N2CCC(N)C2)ccc2c(=O)c(C(=O)O)cn(C3CC3)c12 (centres undefined)	1 (≈ 3.05 µM)	0.5 (≈ 1.53 µM)	< 0.016	< 0.016	< 0.016	< 0.016	< 0.016	0.5 (≈ 1.53 µM)	1 (≈ 3.05 µM)	1 (≈ 3.05 µM)	0.125 (≈ 0.382 µM)	0.25 (≈ 0.764 µM)	0.125 (≈ 0.382 µM)	4 (≈ 12.2 µM)	0.06 (≈ 0.183 µM)	1 (≈ 3.05 µM)	16 (≈ 48.9 µM)	0.125 (≈ 0.382 µM)
Cc1c(N2CC(C)CC(C)C2)ccc2c(=O)c(C(=O)O)cn(C3CC3)c12 (centres undefined)	1 (≈ 2.82 µM)	1 (≈ 2.82 µM)	4 (≈ 11.3 µM)	1 (≈ 2.82 µM)	1 (≈ 2.82 µM)	0.25 (≈ 0.705 µM)	0.5 (≈ 1.41 µM)	16 (≈ 45.1 µM)	> 16	> 16	< 0.016	< 0.016	< 0.016	4 (≈ 11.3 µM)	0.5 (≈ 1.41 µM)	2 (≈ 5.64 µM)	> 16	8 (≈ 22.6 µM)
Cc1c(N2CCNCC2)ccc2c(=O)c(C(=O)O)cn(C3CC3)c12.Cl	2	2	0.26	0.03	0.03	0.03	< 0.016	0.25	2	2	0.5	0.5	0.25	16	2	2	> 16	0.125

More lines, in order of falling MIC (Enterococcus faecalis [1]), values ahead:

MIC (Enterococcus faecalis [1]) [µg/mL]	MIC (Enterococcus faecalis [2]) [µg/mL]	MIC (Enterobacter cloacae) [µg/mL]	MIC (Escherichia coli [3]) [µg/mL]	MIC (Escherichia coli [4]) [µg/mL]	MIC (Haemophilus influenzae) [µg/mL]	MIC (Klebsiella pneumoniae) [µg/mL]	MIC (Proteus mirabilis) [µg/mL]	MIC (Pseudomonas aeruginosa [5]) [µg/mL]	MIC (Proteus vulgaris) [µg/mL]	MIC (Staphylococcus aureus [6]) [µg/mL]	MIC (Staphylococcus aureus [7]) [µg/mL]	MIC (Staphylococcus aureus [8]) [µg/mL]	MIC (Staphylococcus aureus [9]) [µg/mL]	MIC (Streptococcus pneumoniae) [µg/mL]	MIC (Streptococcus pyogenes) [µg/mL]	MIC (Escherichia coli [10]) [µg/mL]	MIC (Pseudomonas aeruginosa [11]) [µg/mL]	SMILES
1 (≈ 2.9 µM)	0.5 (≈ 1.45 µM)	1 (≈ 2.9 µM)	0.25 (≈ 0.726 µM)	0.125 (≈ 0.363 µM)	< 0.016	< 0.016	4 (≈ 11.6 µM)	16 (≈ 46.5 µM)	16 (≈ 46.5 µM)	> 0.016	> 0.016	> 0.016	2 (≈ 5.81 µM)	1 (≈ 2.9 µM)	0.5 (≈ 1.45 µM)	> 16	4 (≈ 11.6 µM)	Cc1c(N2CCSCC2)ccc2c(=O)c(C(=O)O)cn(C3CC3)c12
1 (≈ 2.81 µM)	0.25 (≈ 0.701 µM)	2 (≈ 5.61 µM)	0.5 (≈ 1.4 µM)	1 (≈ 2.81 µM)	1 (≈ 2.81 µM)	0.125 (≈ 0.351 µM)	16 (≈ 44.9 µM)	16 (≈ 44.9 µM)	> 16	0.125 (≈ 0.351 µM)	0.03 (≈ 0.0842 µM)	< 0.016	1 (≈ 2.81 µM)	0.5 (≈ 1.4 µM)	0.5 (≈ 1.4 µM)	> 16	16 (≈ 44.9 µM)	Cc1c(N2CC(C)OC(C)C2)ccc2c(=O)c(C(=O)O)cn(C3CC3)c12 (centres undefined)
0.5	0.25	0.25	0.016	0.03	0.6	0.016	0.06	0.5	2	0.125	0.25	0.125	4	0.25	0.25	16	0.125	CC(=O)O.Cc1c(N2CC[C@@H](N)C2)ccc2c(=O)c(C(=O)O)cn(C3CC3)c12
0.5 (≈ 1.4 µM)	0.25 (≈ 0.701 µM)	0.5 (≈ 1.4 µM)	0.25 (≈ 0.701 µM)	0.125 (≈ 0.351 µM)	< 0.016	0.06 (≈ 0.168 µM)	4 (≈ 11.2 µM)	16 (≈ 44.9 µM)	8 (≈ 22.4 µM)	< 0.016	< 0.016	< 0.016	1 (≈ 2.81 µM)	0.5 (≈ 1.4 µM)	0.5 (≈ 1.4 µM)	16 (≈ 44.9 µM)	4 (≈ 11.2 µM)	Cc1c(N2CCCC(CO)C2)ccc2c(=O)c(C(=O)O)cn(C3CC3)c12 (centres undefined)
